From the NIST ThermoML archive (doi:10.1021/acs.jced.6b00516)

Assay: xn = mol fraction of the nth substance listed
Conditions: for viscosity / speed of sound: 102 kPa, Liquid; for viscosity: Concentric cylinders viscometry; for speed of sound: Frequency=3 MHz, Sing-around technique in a fixed-path interferometer; for surface tension liquid-gas: 294.4 K, Sessile Drop

CCCCC1CCCCC1 [butylcyclohexane] + CCCCCCCCCCCCCCCC
Conditions	speed of sound [m/s]	viscosity [mPa·s]
293.15 K, x1 = 0.1524	1353.6	3.07
293.15 K, x1 = 0.2876	1349.9	2.76
293.15 K, x1 = 0.4091	1346.4	2.48
293.15 K, x1 = 0.5182	1343.3	2.25
293.15 K, x1 = 0.6173	1340.4	2.04
293.15 K, x1 = 0.7078	1337.4	1.86
293.15 K, x1 = 0.7902	1334.9	1.7
293.15 K, x1 = 0.8658	1332.7	1.55
293.15 K, x1 = 0.9355	1330.4	1.42
293.15 K, x1 = 1	–	1.31
303.15 K, x1 = 0.1524	1316.4	2.46
303.15 K, x1 = 0.2876	1312.6	2.23
303.15 K, x1 = 0.4091	1309	2.03
303.15 K, x1 = 0.5182	1305.6	1.85
303.15 K, x1 = 0.6173	1302.5	1.69
303.15 K, x1 = 0.7078	1299.2	1.55
303.15 K, x1 = 0.7902	1296.4	1.42
303.15 K, x1 = 0.8658	1293.8	1.31
303.15 K, x1 = 0.9355	1291.2	1.21
303.15 K, x1 = 1	–	1.12
313.15 K, x1 = 0.1524	1279.7	2.01
313.15 K, x1 = 0.2876	1275.8	1.84
313.15 K, x1 = 0.4091	1272	1.68
313.15 K, x1 = 0.5182	1268.5	1.54
313.15 K, x1 = 0.6173	1265.1	1.42
313.15 K, x1 = 0.7078	1261.5	1.31
313.15 K, x1 = 0.7902	1258.3	1.21
313.15 K, x1 = 0.8658	1255.3	1.12
313.15 K, x1 = 0.9355	1252.3	1.03
313.15 K, x1 = 1	–	0.961
323.15 K, x1 = 0.1524	1243.6	1.68
323.15 K, x1 = 0.2876	1239.6	1.54
323.15 K, x1 = 0.4091	1235.5	1.42
323.15 K, x1 = 0.5182	1231.8	1.31
323.15 K, x1 = 0.6173	1228.2	1.21
323.15 K, x1 = 0.7078	1224.3	1.12
323.15 K, x1 = 0.7902	1220.8	1.04
323.15 K, x1 = 0.8658	1217.6	0.966
323.15 K, x1 = 0.9355	1214.1	0.897
323.15 K, x1 = 1	–	0.837
333.15 K, x1 = 0.1524	1208.1	1.42
333.15 K, x1 = 0.2876	1203.9	1.31
333.15 K, x1 = 0.4091	1199.7	1.21
333.15 K, x1 = 0.5182	1195.7	1.13
333.15 K, x1 = 0.6173	1191.8	1.05
333.15 K, x1 = 0.7078	1187.6	0.972
333.15 K, x1 = 0.7902	1183.9	0.906
333.15 K, x1 = 0.8658	1180.3	0.844
333.15 K, x1 = 0.9355	1176.4	0.783
333.15 K, x1 = 1	–	0.735
343.15 K, x1 = 0.1524	–	1.22
343.15 K, x1 = 0.2876	–	1.13
343.15 K, x1 = 0.4091	–	1.05
343.15 K, x1 = 0.5182	–	0.977
343.15 K, x1 = 0.6173	–	0.912
343.15 K, x1 = 0.7078	–	0.851
343.15 K, x1 = 0.7902	–	0.797
343.15 K, x1 = 0.8658	–	0.745
343.15 K, x1 = 0.9355	–	0.694
343.15 K, x1 = 1	–	0.648
353.15 K, x1 = 0.1524	–	1.06
353.15 K, x1 = 0.2876	–	0.987
353.15 K, x1 = 0.4091	–	0.921
353.15 K, x1 = 0.5182	–	0.86
353.15 K, x1 = 0.6173	–	0.805
353.15 K, x1 = 0.7078	–	0.753
353.15 K, x1 = 0.7902	–	0.706
353.15 K, x1 = 0.8658	–	0.662
353.15 K, x1 = 0.9355	–	0.619
353.15 K, x1 = 1	–	0.576

Conditions	surface tension liquid-gas [mN/m]
x1 = 0.1524	26.9
x1 = 0.2876	26.9
x1 = 0.4091	26.9
x1 = 0.5182	26.8
x1 = 0.6173	26.8
x1 = 0.7078	26.8
x1 = 0.7902	26.7
x1 = 0.8658	26.7
x1 = 0.9355	26.7

CCCCC1CCCCC1 [butylcyclohexane] + Cc1ccccc1
Conditions	speed of sound [m/s]	viscosity [mPa·s]
293.15 K, x1 = 0.0681	1321.1	0.622
293.15 K, x1 = 0.1544	1316.7	0.649
293.15 K, x1 = 0.2197	1314.5	0.678
293.15 K, x1 = 0.3045	1313	0.721
293.15 K, x1 = 0.3964	1312.8	0.774
293.15 K, x1 = 0.4964	1313.5	0.838
293.15 K, x1 = 0.6046	1315.6	0.916
293.15 K, x1 = 0.7244	1318.9	1.02
293.15 K, x1 = 0.8548	1323.3	1.16
293.15 K, x1 = 1	–	1.31
303.15 K, x1 = 0.0681	1278.6	0.552
303.15 K, x1 = 0.1544	1274.6	0.578
303.15 K, x1 = 0.2197	1272.7	0.603
303.15 K, x1 = 0.3045	1271.6	0.638
303.15 K, x1 = 0.3964	1271.6	0.683
303.15 K, x1 = 0.4964	1272.7	0.735
303.15 K, x1 = 0.6046	1275	0.8
303.15 K, x1 = 0.7244	1278.6	0.885
303.15 K, x1 = 0.8548	1283.3	0.991
303.15 K, x1 = 1	–	1.12
313.15 K, x1 = 0.0681	1236.5	0.495
313.15 K, x1 = 0.1544	1232.9	0.518
313.15 K, x1 = 0.2197	1231.4	0.538
313.15 K, x1 = 0.3045	1230.6	0.568
313.15 K, x1 = 0.3964	1230.9	0.607
313.15 K, x1 = 0.4964	1232.3	0.651
313.15 K, x1 = 0.6046	1234.9	0.704
313.15 K, x1 = 0.7244	1238.8	0.775
313.15 K, x1 = 0.8548	1243.7	0.862
313.15 K, x1 = 1	–	0.961
323.15 K, x1 = 0.0681	1194.9	0.446
323.15 K, x1 = 0.1544	1191.8	0.466
323.15 K, x1 = 0.2197	1190.6	0.484
323.15 K, x1 = 0.3045	1190.1	0.51
323.15 K, x1 = 0.3964	1190.7	0.541
323.15 K, x1 = 0.4964	1192.5	0.58
323.15 K, x1 = 0.6046	1195.4	0.625
323.15 K, x1 = 0.7244	1199.6	0.683
323.15 K, x1 = 0.8548	1204.8	0.754
323.15 K, x1 = 1	–	0.837
333.15 K, x1 = 0.0681	1153.9	0.405
333.15 K, x1 = 0.1544	1151.2	0.422
333.15 K, x1 = 0.2197	1150.3	0.437
333.15 K, x1 = 0.3045	1150.2	0.46
333.15 K, x1 = 0.3964	1151.1	0.486
333.15 K, x1 = 0.4964	1153.2	0.519
333.15 K, x1 = 0.6046	1156.5	0.558
333.15 K, x1 = 0.7244	1161	0.604
333.15 K, x1 = 0.8548	1166.5	0.663
333.15 K, x1 = 1	–	0.735
343.15 K, x1 = 0.0681	–	0.37
343.15 K, x1 = 0.1544	–	0.379
343.15 K, x1 = 0.2197	–	0.397
343.15 K, x1 = 0.3045	–	0.418
343.15 K, x1 = 0.3964	–	0.438
343.15 K, x1 = 0.4964	–	0.469
343.15 K, x1 = 0.6046	–	0.502
343.15 K, x1 = 0.7244	–	0.535
343.15 K, x1 = 0.8548	–	0.586
343.15 K, x1 = 1	–	0.648
353.15 K, x1 = 0.0681	–	0.325
353.15 K, x1 = 0.1544	–	0.345
353.15 K, x1 = 0.2197	–	0.356
353.15 K, x1 = 0.3045	–	0.373
353.15 K, x1 = 0.3964	–	0.395
353.15 K, x1 = 0.4964	–	0.426
353.15 K, x1 = 0.6046	–	0.451
353.15 K, x1 = 0.7244	–	0.49
353.15 K, x1 = 0.8548	–	0.532
353.15 K, x1 = 1	–	0.576

Conditions	surface tension liquid-gas [mN/m]
x1 = 0.0681	28.1
x1 = 0.1544	27.7
x1 = 0.2197	27.5
x1 = 0.3045	27.3
x1 = 0.3964	27.2
x1 = 0.4964	27
x1 = 0.6046	26.9
x1 = 0.7244	26.7
